# Measured values: patent publication US20140179609A1, “Whey protein hydrolysate containing tryptophan peptide consisting of alpha lactalbumin and the use thereof” (Technische Universität Dresden, priority 2008, published 2014)
# Where a SMILES comes first, the peptide text is derived from it.
# T1: ACE (Oryctolagus cuniculus, UniProt P12822)
# T1 construct: The employed ACE is the rabbit lung enzyme obtained from Sigma-Aldrich; purchased Sigma-Aldrich; host or cells: rabbit lung (tissue-derived enzyme)
# T1 sequence (P12822 34-1310): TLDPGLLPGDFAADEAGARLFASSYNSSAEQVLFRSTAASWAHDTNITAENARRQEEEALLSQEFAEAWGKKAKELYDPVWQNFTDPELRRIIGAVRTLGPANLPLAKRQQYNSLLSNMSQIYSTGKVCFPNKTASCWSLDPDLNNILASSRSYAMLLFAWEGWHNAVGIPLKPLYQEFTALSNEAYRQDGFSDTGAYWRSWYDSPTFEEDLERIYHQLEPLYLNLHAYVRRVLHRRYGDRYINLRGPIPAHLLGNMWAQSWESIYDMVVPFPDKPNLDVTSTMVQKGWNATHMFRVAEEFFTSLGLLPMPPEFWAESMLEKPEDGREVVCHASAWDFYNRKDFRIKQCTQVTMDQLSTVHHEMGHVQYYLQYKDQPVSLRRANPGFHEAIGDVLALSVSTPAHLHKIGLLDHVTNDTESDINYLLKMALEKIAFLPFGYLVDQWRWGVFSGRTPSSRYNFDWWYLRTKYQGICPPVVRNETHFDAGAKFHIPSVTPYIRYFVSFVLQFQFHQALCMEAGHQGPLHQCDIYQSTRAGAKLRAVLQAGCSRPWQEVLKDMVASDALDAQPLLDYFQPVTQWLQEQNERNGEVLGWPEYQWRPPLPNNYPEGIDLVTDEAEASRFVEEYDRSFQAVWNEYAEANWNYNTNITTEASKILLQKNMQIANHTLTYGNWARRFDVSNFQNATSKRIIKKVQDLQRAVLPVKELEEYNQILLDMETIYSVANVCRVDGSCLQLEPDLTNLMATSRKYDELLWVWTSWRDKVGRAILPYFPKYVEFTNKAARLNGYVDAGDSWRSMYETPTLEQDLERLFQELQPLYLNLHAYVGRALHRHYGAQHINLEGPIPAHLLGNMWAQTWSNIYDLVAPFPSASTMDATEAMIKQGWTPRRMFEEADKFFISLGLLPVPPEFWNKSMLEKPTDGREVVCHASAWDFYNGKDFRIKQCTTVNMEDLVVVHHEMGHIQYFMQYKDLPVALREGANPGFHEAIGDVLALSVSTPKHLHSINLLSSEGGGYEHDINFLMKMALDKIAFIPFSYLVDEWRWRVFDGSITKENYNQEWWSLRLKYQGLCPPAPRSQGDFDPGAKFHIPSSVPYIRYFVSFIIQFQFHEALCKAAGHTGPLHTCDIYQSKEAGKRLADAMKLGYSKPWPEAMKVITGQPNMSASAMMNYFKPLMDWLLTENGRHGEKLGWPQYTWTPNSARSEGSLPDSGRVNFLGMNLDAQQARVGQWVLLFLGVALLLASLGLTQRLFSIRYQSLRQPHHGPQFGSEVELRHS
# B1: trypsin: trypsin obtained from porcine pancreas (EC 3.4.21.4), heat-inactivated hydrolysis enzyme (protein, UniProt P00761 9-231, looked up)
# Trypsin: IVGGYTCAANSIPYQVSLNSGSHFCGGSLINSQWVVSAAHCYKSRIQVRLGEHNIDVLEGNEQFINAAKIITHPNFNGNTLDNDIMLIKLSSPATLNSRVATVSLPRSCAAAGTECLISGWGNTKSSGSSYPSLLQCLKAPVLSDSSCKSSYPGQITGNMICVGFLEGGKDSCQGDSGGPVVCNGQLQGIVSWGYGCAQKNKPGVYTKVCNYVNWIQQTIAAN
# B2: Alcalase: protease from Bacillus licheniformis, heat-inactivated hydrolysis enzyme (protein, UniProt P00780 106-379, looked up)
# Subtilisin Carlsberg: AQTVPYGIPLIKADKVQAQGFKGANVKVAVLDTGIQASHPDLNVVGGASFVAGEAYNTDGNGHGTHVAGTVAALDNTTGVLGVAPSVSLYAVKVLNSSGSGSYSGIVSGIEWATTNGMDVINMSLGGASGSTAMKQAVDNAYAKGVVVVAAAGNSGSSGNTNTIGYPAKYDSVIAVGAVDSNSNRASFSSVGAELEVMAPGAGVYSTYPTNTYATLNGTSMASPHVAGAAALILSKHPNLSASQVRNRLSSTATYLGSSFYYGKGLINVEAAAQ
# Tests used:
# proteases = experiment: Stability of the dipeptides during enzymatic hydrolysis of whey protein (detection by GPC / LC-ESI-TOF-MS); settings: hydrolysis with trypsin, Alcalase, Flavourzyme; found by GPC in all hydrolysates after three hours
# Description: The whey protein Milei60 was hydrolyzed enzymatically by proteolytically acting enzymes, i.e., trypsin obtained from porcine pancreas (EC 3.4.21.4) as well as two further proteases, i.e., Alcalase® (Bacillus licheniformis) and Flavourzyme (Aspergillus oryzae). The following Table illustrates how hydrolysis is carried out.
# The release of dipeptides Trp-Leu and Ile-Trp according to the invention during the course of hydrolysis was analyzed by GPC and LC-ESI-TOF-MS (liquid chromatography/electrospray ionization time of flight mass spectrometry).
# In GPC the identification of the dipeptides was carried out by comparison with peaks of the standard peptides that were carried along.
# The strongly ACE-inhibiting peptide Ile-Trp was detected unequivocally in the hydrolysates after a hydrolysis duration of three hours. Therefore, it appears to be accessible for the proteases only after a certain time has lapsed; this is true also for Trp-Leu.
# ACE = molecular target: T1, ACE; experiment: ACE activity test (substrate HHL, hippuric acid quantified by RP HPLC); type: biochemical, rabbit; settings: for IC50: dipeptides from Bachem, test as in Example 2, read-out: IC50 [μM] ACE-inhibiting activity; for ACE inhibiting action (in words): samples heat-treated at 100° C. for 10 minutes
# Description: The determination of the ACE activity of the protein hydrolysates was carried out similar to a test disclosed by Cushman and Cheung in […] (Cushman, D. W. and Cheung, H.-S. Spectrophotometric Assay and Properties of Angiotensin-Converting Enzyme of Rabbit Lung, Biochemical Pharmacology, 1971, 20, 1637-1648). However, several modifications were carried out. The employed ACE is the rabbit lung enzyme obtained from Sigma-Aldrich. As a substrate N-benzoyl-glycyl-L-histidyl-L-leucin (HHL) was used which is considered to be analog to the natural substrate angiotensin I. ACE catalyzes the hydrolysis to L-histidyl-L-leucin (HL) and N-benzoyl-glycin (hippuric acid):
# Since hippuric acid is UV-active (λmax=228 nm), it is possible, based on its contents determined by RP HPLC, to define the conversion rate and thus the enzyme activity. By means of a concentration series of the respective inhibitor solution, the inhibitor concentration can be determined that is required for lowering the ACE activity by one half (IC50).
# In each series of measurements two enzyme blind values were carried along in which, in place of the sample solution, the same volume of double distilled water had been added. The blind value corresponds to 100% ACE activity. Calculation of the IC50 values was done by the software program SigmaPlot 5.0.
# In addition to the samples that had been incubated for different lengths of time, also a blind value sample was analyzed that contained all employed enzymes and the whey protein powder in the same concentration as the hydrolysis samples. However, after addition of all substances, the enzymatic action was inactivated immediately by 10-minute incubation at 100° C. Also, possible effects by individual compounds on ACE were tested. For this purpose, the enzymes were inactivated and individually tested with respect to possible ACE inhibiting action. The same procedure was carried out with the whey protein powder. Whey protein powder that was not heat-treated was also tested with respect to its inhibiting action. For the determination of the IC50 value of the hydrolysis samples several concentrations were used in the ACE activity test. A protein concentration of 1000 mg protein/I was used as the basis. This parent solution was diluted 1:2, 1:5, 1:10, 1:20, 1:50, 1:100 and all solutions were tested with respect to their ACE inhibiting effect. Evaluation was also done with SigmaPlot 5.0.
# In Table 12 the parameters measured by RP HPLC and LC-ESI-TOF-MS for the dipeptides according to the invention are listed. The Table contains also the IC50 values that were obtained for the dipeptides. […]
# [1] = tested on: spontaneously hypertensive rats; experiment: Feeding tests on spontaneously hypertensive rats; type: in vivo, rat
# Text: Administered was a preparation that contained the peptides according to the invention (PP), feed with intact whey protein (MP) as well as, as a control, a rat feed with captopril, a known ACE inhibiting agent as well as a placebo.
# The basic importance of whey protein hydrolysates containing the tryptophan-containing peptides of the present invention for affecting the arterial blood pressure was objectified in animal tests on spontaneously hypertensive rats (FIG. 4). Here, the whey protein hydrolysate in comparison to a control diet caused a significant lowering of systolic blood pressure by 21±6 mm Hg after 7 weeks. Feeding captopril (ACE inhibitor of the first generation) lowered over the same time period the blood pressure by 28±7 mm Hg.
# This implies comprehensive heart-protective and vessel-protective effects caused by the whey protein hydrolysate.
Molecule,stability with respect to further digestion to the amino acids (proteases),IC50 (ACE) [µM],ACE inhibiting action (in words) (ACE),further results
CC[C@H](C)[C@H](N)C(=O)N[C@@H](Cc1c[nH]c2ccccc12)C(=O)O [Ile-Trp],stable with respect to further digestion to the amino acids,0.7,,
CC(C)C[C@H](NC(=O)[C@@H](N)Cc1c[nH]c2ccccc12)C(=O)O [Trp-Leu] (H-Trp-Leu-OH; N-terminus and C-terminus assumed),stable with respect to further digestion to the amino acids,10,,
C[C@H](CS)C(=O)N1CCC[C@H]1C(=O)O [captopril],,,,"lowering of systolic blood pressure ([1]; after 7 weeks, in comparison to a control diet): 28±7 mm Hg; reduced heart mass ([1]; in comparison to controls): 16%"
B1,,,"neither the inactivated enzymes, individually or as a mixture, nor the protein had an effect on ACE",
B2,,,"neither the inactivated enzymes, individually or as a mixture, nor the protein had an effect on ACE",
